Among the data in patent US20230265151A1, “GIP/GLP1 CO-AGONIST COMPOUNDS” (priority 2020, published 2023) are Emax and EC50 values, retold here.

Format in all cases: cell-based
The target in assay [1] is T1, hGIPR (Homo sapiens, UniProt P48546).
T1 construct: expressed in transfected cells
T1 sequence (P48546 22-466): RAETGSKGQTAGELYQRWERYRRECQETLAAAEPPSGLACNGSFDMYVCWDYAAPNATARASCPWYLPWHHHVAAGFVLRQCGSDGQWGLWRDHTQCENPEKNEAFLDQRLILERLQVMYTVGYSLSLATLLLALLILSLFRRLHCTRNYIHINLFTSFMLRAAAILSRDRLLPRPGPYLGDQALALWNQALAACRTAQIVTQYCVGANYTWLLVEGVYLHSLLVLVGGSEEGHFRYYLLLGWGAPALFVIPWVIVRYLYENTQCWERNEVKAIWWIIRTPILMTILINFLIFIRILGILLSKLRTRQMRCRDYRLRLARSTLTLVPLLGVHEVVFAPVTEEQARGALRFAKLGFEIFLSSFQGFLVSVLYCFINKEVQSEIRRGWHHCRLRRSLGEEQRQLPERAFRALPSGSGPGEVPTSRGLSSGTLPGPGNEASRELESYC
Description: Functional cAMP formation (HTRF) in HEK-293 clonal cells expressing hGIPR, 0.1% bovine casein, without or with 1.0% human serum albumin. Conditions: for EC50: cAMP, 0.1% bovine casein (no human serum albumin), geometric mean. The method, boiled down:
(§1)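 Cells were stimulated with peptide for 30 min at 37° C, then intracellular cAMP was measured by competitive HTRF (665/620 nm ratio) and converted to nM using a cAMP standard curve. Relative EC50 and Emax came from four-parameter logistic fits of percent maximal response against peptide concentration.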

Assay [2] addresses T2, hGCGR (Homo sapiens, UniProt P47871).
T2 construct: expressed in transfected cells
Description: Functional cAMP formation (HTRF) in HEK-293 clonal cells expressing hGCGR, 0.1% bovine casein, without or with 1.0% human serum albumin. The method, boiled down: as §1

Assay [3] has as its target hGLP-1R (Homo sapiens, UniProt P43220). In words: Functional cAMP formation (HTRF) in HEK-293 clonal cells expressing hGLP-1R, 0.1% bovine casein, without or with 1.0% human serum albumin. The arrangement: expressed in transfected cells. The essentials:
as §1
(Changes in cAMP serve as a functional read-out for many G protein-coupled receptors.)

SMILES strings stand for the structures. Where two headings read alike, the source gives them in different places.

Chain of hGLP-1R (P43220 24-463): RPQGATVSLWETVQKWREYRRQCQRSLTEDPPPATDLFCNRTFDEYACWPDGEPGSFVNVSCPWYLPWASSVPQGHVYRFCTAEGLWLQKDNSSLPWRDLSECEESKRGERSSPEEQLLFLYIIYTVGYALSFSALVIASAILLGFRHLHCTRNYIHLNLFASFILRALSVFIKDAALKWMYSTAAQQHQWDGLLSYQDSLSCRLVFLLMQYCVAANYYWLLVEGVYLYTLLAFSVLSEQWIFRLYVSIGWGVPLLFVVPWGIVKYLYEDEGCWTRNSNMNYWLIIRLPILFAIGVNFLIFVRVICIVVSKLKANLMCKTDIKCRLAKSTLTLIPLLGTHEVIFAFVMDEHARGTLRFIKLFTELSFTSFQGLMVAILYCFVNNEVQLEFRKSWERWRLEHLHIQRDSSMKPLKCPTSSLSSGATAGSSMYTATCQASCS
T2 sequence (P47871 26-477): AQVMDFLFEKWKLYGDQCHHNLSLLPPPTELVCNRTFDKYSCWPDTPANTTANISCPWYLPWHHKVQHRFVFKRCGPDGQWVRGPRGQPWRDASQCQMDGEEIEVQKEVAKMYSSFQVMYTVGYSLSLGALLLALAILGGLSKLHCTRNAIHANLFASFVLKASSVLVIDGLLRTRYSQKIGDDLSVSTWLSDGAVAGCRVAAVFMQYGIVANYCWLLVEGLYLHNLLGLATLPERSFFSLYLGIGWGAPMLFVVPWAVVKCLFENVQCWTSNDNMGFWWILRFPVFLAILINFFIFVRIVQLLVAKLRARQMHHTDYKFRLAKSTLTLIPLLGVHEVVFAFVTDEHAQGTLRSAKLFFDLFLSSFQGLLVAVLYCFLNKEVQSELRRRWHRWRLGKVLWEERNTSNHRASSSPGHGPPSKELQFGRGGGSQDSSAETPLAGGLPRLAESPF

A word on the Emax: it is the maximal effect, on the per cent scale that the assay sets. The term EC50 denotes the concentration at which the effect is half-maximal. Consider `CC[C@H](C)[C@H](NC(=O)[C@H](CCCN)NC(=O)[C@H](CC(=O)O)NC(=O)[C@H](CC(C)C)NC(=O)[C@](C)(CC(C)C)NC(=O)[C@@H](NC(=O)[C@H](CO)NC(=O)[C@H](Cc1ccncc1)NC(=O)[C@H](CC(=O)O)NC(=O)[C@H](CO)NC(=O)[C@@H](NC(=O)[C@](C)(Cc1ccccc1F)NC(=O)[C@@H](NC(=O)CNC(=O)[C@H](CCC(=O)O)NC(=O)C(C)(C)NC(=O)[C@@H](N)Cc1ccc(O)cc1)[C@@H](C)O)[C@@H](C)O)[C@@H](C)CC)C(=O)N[C@@H](C)C(=O)N[C@@H](CCC(N)=O)C(=O)NC(C)(C)C(=O)N[C@@H](CCC(=O)O)C(=O)N[C@@H](Cc1ccccc1)C(=O)N[C@H](C(=O)N[C@@H](CCCCNC(=O)COCCOCCNC(=O)COCCOCCNC(=O)COCCOCCNC(=O)CC[C@H](NC(=O)CCCCCCCCCCCCC(=O)O)C(=O)O)C(=O)N[C@@](C)(Cc1ccc(O)cc1)C(=O)N[C@@H](CC(C)C)C(=O)N[C@H](C(=O)N[C@@H](CCCCNC(=O)COCCOCCNC(=O)COCCOCCNC(=O)COCCOCCNC(=O)CC[C@H](NC(=O)CCCCCCCCCCCCC(=O)O)C(=O)O)C(=O)NCC(=O)NCC(=O)N1CCC[C@H]1C(=O)N[C@@H](CO)C(=O)N[C@@H](CO)C(=O)NCC(=O)N[C@@H](C)C(=O)N1CCC[C@H]1C(=O)N1CCC[C@H]1C(=O)N1CCC[C@H]1C(=O)N[C@@H](CO)C(N)=O)[C@@H](C)CC)[C@@H](C)CC` [Example 226], for which the Emax in assay [1] (HEK293, 0.1% bovine casein and 1.0% human serum albumin, 37° C., percent of maximal response to GIP(1-42)NH2, read-out: hGIPR Emax, % ± SEM) stood at 92.1%; in assay [3] (HEK293, 0.1% bovine casein and 1.0% human serum albumin, 37° C., percent of maximal response to GLP-1(7-36)NH2, read-out: hGLP-1R Emax, % ± SEM), 118%. Further, the concentration giving a half-maximal response (EC50) was 0.0232 nM in assay [1] (incubated at 37° C., read-out: hGIPR EC50, nM (SEM, n)); more than 9950 nM in assay [2] (0.1% bovine casein and 1.0% human serum albumin, 37° C., geometric mean, read-out: hGCGR EC50, nM (SEM, n)); more than 9950 nM in assay [2] (cAMP, incubated at 37° C., 0.1% bovine casein (no human serum albumin), geometric mean, read-out: hGCGR EC50, nM (SEM, n)); 11.3 nM in assay [3] (0.1% bovine casein and 1.0% human serum albumin, 37° C., geometric mean, read-out: hGLP-1R EC50, nM (SEM, n)).

As for `CC[C@H](C)[C@H](NC(=O)[C@H](CC(C)C)NC(=O)[C@](C)(Cc1ccc(O)cc1)NC(=O)[C@@H](CCC(=O)O)NC(=O)[C@@H](NC(=O)[C@H](Cc1ccccc1)NC(=O)[C@H](CCC(=O)O)NC(=O)C(C)(C)NC(=O)[C@H](CCC(N)=O)NC(=O)[C@H](C)NC(=O)[C@H](CCCCNC(=O)COCCOCCNC(=O)COCCOCCNC(=O)CC[C@H](NC(=O)CCCCCCCCCOc1ccc(C(=O)O)cc1)C(=O)O)NC(=O)[C@H](CCCN)NC(=O)[C@H](CC(=O)O)NC(=O)[C@H](CC(C)C)NC(=O)[C@](C)(CC(C)C)NC(=O)[C@@H](NC(=O)C(C)(C)NC(=O)[C@H](Cc1ccncc1)NC(=O)[C@H](CC(=O)O)NC(=O)[C@H](CO)NC(=O)[C@@H](NC(=O)[C@](C)(Cc1ccccc1F)NC(=O)[C@@H](NC(=O)CNC(=O)[C@H](CCC(=O)O)NC(=O)C(C)(C)NC(=O)[C@@H](N)Cc1ccc(O)cc1)[C@@H](C)O)[C@@H](C)O)[C@@H](C)CC)[C@@H](C)CC)C(=O)N[C@@H](CCC(=O)O)C(=O)NCC(=O)NCC(=O)N1CCC[C@H]1C(=O)N[C@@H](CO)C(=O)N[C@@H](CO)C(=O)NCC(=O)N[C@@H](C)C(=O)N1CCC[C@H]1C(=O)N1CCC[C@H]1C(=O)N1CCC[C@H]1C(=O)N[C@@H](CO)C(=O)N[C@@H](CCCCNC(=O)COCCOCCNC(=O)COCCOCCNC(=O)CC[C@H](NC(=O)CCCCCCCCCOc1ccc(C(=O)O)cc1)C(=O)O)C(N)=O` [Example 245], the Emax in assay [1] (HEK293, read-out: hGIPR Emax, % ± SEM, 0.1% bovine casein and 1.0% human serum albumin, 37° C., percent of maximal response to GIP(1-42)NH2) was found to be 81.9%; in assay [1] (HEK293, read-out: hGIPR Emax, % ± SEM, percent of maximal response to GIP(1-42)NH2, 37° C., 0.1% bovine casein, arithmetic mean), 96.7%; in assay [3] (HEK293, read-out: hGLP-1R Emax, % ± SEM, 0.1% bovine casein and 1.0% human serum albumin, 37° C., percent of maximal response to GLP-1(7-36)NH2), 93.8%; in assay [3] (HEK293, read-out: hGLP-1R Emax, % ± SEM, percent of maximal response to GLP-1(7-36)NH2, 37° C., 0.1% bovine casein, arithmetic mean) it was 88.9%. Moreover, the EC50 is 0.0195 nM in assay [1] (hGIPR EC50, nM (SEM, n), incubated at 37° C.); more than 9950 nM in assay [2] (hGCGR EC50, nM (SEM, n), 0.1% bovine casein and 1.0% human serum albumin, 37° C., geometric mean); more than 9950 nM in assay [2] (hGCGR EC50, nM (SEM, n), cAMP, incubated at 37° C., 0.1% bovine casein (no human serum albumin), geometric mean); 27 nM in assay [3] (hGLP-1R EC50, nM (SEM, n), 0.1% bovine casein and 1.0% human serum albumin, 37° C., geometric mean); 1.88 nM in assay [3] (hGLP-1R EC50, nM (SEM, n), cAMP, incubated at 37° C., 0.1% bovine casein (no human serum albumin), geometric mean).

As for `CC[C@H](C)[C@H](NC(=O)[C@H](CC(C)C)NC(=O)[C@](C)(Cc1ccc(O)cc1)NC(=O)[C@@H](CCC(=O)O)NC(=O)[C@@H](NC(=O)[C@H](Cc1ccccc1)NC(=O)[C@H](CCC(=O)O)NC(=O)C(C)(C)NC(=O)[C@H](CCC(N)=O)NC(=O)[C@H](C)NC(=O)[C@H](CCCCNC(=O)COCCOCCNC(=O)COCCOCCNC(=O)CCCCCCCCCOc1ccc(C(=O)O)cc1)NC(=O)[C@H](CCCN)NC(=O)[C@H](CC(=O)O)NC(=O)[C@H](CC(C)C)NC(=O)[C@](C)(CC(C)C)NC(=O)[C@@H](NC(=O)C(C)(C)NC(=O)[C@H](Cc1ccncc1)NC(=O)[C@H](CC(=O)O)NC(=O)[C@H](CO)NC(=O)[C@@H](NC(=O)[C@](C)(Cc1ccccc1F)NC(=O)[C@@H](NC(=O)CNC(=O)[C@H](CCC(=O)O)NC(=O)C(C)(C)NC(=O)[C@@H](N)Cc1ccc(O)cc1)[C@@H](C)O)[C@@H](C)O)[C@@H](C)CC)[C@@H](C)CC)C(=O)N[C@@H](CCCCNC(=O)COCCOCCNC(=O)COCCOCCNC(=O)CCCCCCCCCOc1ccc(C(=O)O)cc1)C(=O)NCC(=O)NCC(=O)N1CCC[C@H]1C(=O)N[C@@H](CO)C(=O)N[C@@H](CO)C(=O)NCC(=O)N[C@@H](C)C(=O)N1CCC[C@H]1C(=O)N1CCC[C@H]1C(=O)N1CCC[C@H]1C(=O)N[C@@H](CO)C(N)=O` [Example 395], the Emax in assay [1] (HEK293, read-out: hGIPR Emax, % ± SEM, cAMP, 37° C., 0.1% bovine casein and 1.0% human serum albumin, percent of maximal response to GIP(1-42)NH2) was 57.8%; in assay [1] (HEK293, read-out: hGIPR Emax, % ± SEM, cAMP, 37° C., 0.1% bovine casein, percent of maximal response to GIP(1-42)NH2, arithmetic mean), 93.1%; in assay [3] (HEK293, read-out: hGLP-1R Emax, % ± SEM, cAMP, 37° C., 0.1% bovine casein and 1.0% human serum albumin, percent of maximal response to GLP-1(7-36)NH2) it was 96.1%; in assay [3] (HEK293, read-out: hGLP-1R Emax, % ± SEM, cAMP, 37° C., 0.1% bovine casein, percent of maximal response to GLP-1(7-36)NH2, arithmetic mean), 90.8%. Moreover, the EC50 in assay [1] (hGIPR EC50, nM (SEM, n), 37° C.) was 0.0127 nM; in assay [2] (hGCGR EC50, nM (SEM, n), cAMP, 37° C., 0.1% bovine casein (no human serum albumin), geometric mean), more than 9950 nM; in assay [2] (hGCGR EC50, nM (SEM, n), cAMP, 37° C., 0.1% bovine casein and 1.0% human serum albumin, geometric mean (SEM, n)) it was more than 9950 nM; in assay [3] (hGLP-1R EC50, nM (SEM, n), cAMP, 37° C., 0.1% bovine casein (no human serum albumin), geometric mean), 0.377 nM; in assay [3] (hGLP-1R EC50, nM (SEM, n), cAMP, 37° C., 0.1% bovine casein and 1.0% human serum albumin, geometric mean (SEM, n)), 6.26 nM.
